# Laboratory results published in ChEMBL document CHEMBL5247651, “Oxadiazolopyridine Derivatives as Efficacious Mitochondrial Uncouplers in the Prevention of Diet-Induced Obesity” (J Med Chem, 2023).
# Calls of active or inactive are those of the source. The calls are words filed in the database; no cut-off is given here.
# Experiments:
# [1] = (§1) Induction of mitochondrial uncoupling activity in rat L6 cells assessed as increase in oxygen consumption rate at 0.37 to 200 uM measured after 90 mins by agilent Seahorse XF analyzer relative to BAM15; format: functional; conditions: dose 0.37-200 µM, 1.5 h
# [2] = Induction of mitochondrial uncoupling activity in rat L6 cells assessed as increase in oxygen consumption rate measured after 90 mins by agilent Seahorse XF analyzer; format: functional, cell-based
# L6 [3] = conditions: Rattus norvegicus, time 90.0 min
# [4] = Cmax in C57BL/6 mouse at 10 mg/kg, po administered via gavage measured upto 24 hrs by LC/MS-MS analysis; format: ADME, organism-based; parameters: dose 10 mg/kg, time < 24 hrs, route po; conditions: in vivo
# [5] = Half life in C57BL/6 mouse at 10 mg/kg, po administered via gavage measured upto 24 hrs by LC/MS-MS analysis; format: ADME, organism-based; conditions: in vivo
# L6 [6] = assay: as §1; format: functional; conditions: dose 0.37-200 µM
# Mus musculus [7] = assay: Anti-obesity activity against HFD-induced C57BL/6 mouse model assessed as reduction in body fat mass at 5 mg/kg, po via gavage administered 3 times a week measured after 6 weeks; format: functional; parameters: scale not given: the % may be the effect or the level left
# Mus musculus [8] = assay: Anti-obesity activity against HFD-induced C57BL/6J mouse model assessed as reduction in diet-induced weight gain at 125 mg/kg/day measured after 8 weeks; format: functional; parameters: scale not given: the % may be the effect or the level left
SMILES,Activity [1] [%],pEC50 [2],also measured
Oc1nc2nonc2cc1Nc1cc(F)ccc1C(F)(F)F,53,5.1,EC50 [2]: 7.8 µM
Oc1nc2nonc2cc1Nc1ccc(S(F)(F)(F)(F)F)cc1,4,6.2,–
Oc1nc2nonc2cc1Nc1cccc(OC(F)(F)F)c1F,30,5.9,–
Oc1nc2nonc2cc1Nc1ccc(C(F)(F)F)c(C(F)(F)F)c1,10,6,–
Oc1nc2nonc2cc1Nc1c(F)cccc1C(F)(F)F,10,4.3,–
Oc1nc2nonc2cc1Nc1cccc(C(F)(F)F)c1F,3,–,pEC50 (L6 [3]): inactive
Oc1nc2nonc2cc1Nc1c(F)c(F)c(C(F)(F)F)c(F)c1F,69,5.9,EC50 [2]: 2 µM; Cmax [4]: 21 µM; t1/2 [5]: 15.6 h
Oc1nc2nonc2cc1Nc1ccccc1OC(F)(F)F,–,–,Activity (L6 [6]): inactive; pEC50 (L6 [3]): inactive
Oc1nc2nonc2cc1Nc1cc(F)cc(OC(F)(F)F)c1,6,–,pEC50 (L6 [3]): inactive
Oc1nc2nonc2cc1Nc1cc(F)cc(C(F)(F)F)c1,11,6.1,–
Oc1nc2nonc2cc1Nc1ccc(OC(F)(F)C(F)F)cc1,–,–,Activity (L6 [6]): inactive; pEC50 (L6 [3]): inactive
Oc1nc2nonc2cc1Nc1cc(C(F)(F)F)ccc1C(F)(F)F,72,5.7,EC50 [2]: 1.5 µM; Cmax [4]: 29 µM; t1/2 [5]: 2.2 h
Oc1nc2nonc2cc1Nc1ccc(OC(F)(F)F)cc1F,11,5.8,–
O=C(Nc1cc(Cl)cc(Cl)c1)Nc1cc(Cl)cc(Cl)c1,–,–,Activity (Mus musculus [7]): 35%
Oc1nc2nonc2cc1Nc1cccc(OC(F)(F)F)c1,17,5.3,–
Oc1nc2nonc2cc1Nc1cccc(F)c1,3,–,pEC50 (L6 [3]): inactive
O=S(=O)(c1ccc(Nc2cc3nonc3nc2O)cc1)C(F)(F)F,25,6,–
Oc1nc2nonc2cc1Nc1ccccc1C(F)(F)F,20,4.8,–
Oc1nc2nonc2cc1Nc1cc(F)cc(F)c1,24,4.3,–

SMILES,Activity [1] [%],pEC50 [2],also measured
Oc1nc2nonc2cc1Nc1cc(F)ccc1OC(F)(F)F,13,5.9,–
Oc1nc2nonc2cc1Nc1ccc(F)cc1,6,–,pEC50 (L6 [3]): inactive
Oc1nc2nonc2cc1Nc1cccc(F)c1F,3,–,pEC50 (L6 [3]): inactive
Oc1nc2nonc2cc1Nc1cc(OC(F)(F)F)ccc1F,59,5.5,EC50 [2]: 3.4 µM
Oc1nc2nonc2cc1Nc1cccc(C(F)(F)F)c1C(F)(F)F,11,5.7,–
Oc1nc2nonc2cc1Nc1cccc(F)c1C(F)(F)F,26,5.3,–
Oc1nc2nonc2cc1Nc1ccc(F)cc1F,–,–,Activity (L6 [6]): inactive; pEC50 (L6 [3]): inactive
O=S(=O)(c1cccc(Nc2cc3nonc3nc2O)c1)C(F)(F)F,13,> 4,–
CS(=O)(=O)c1ccc(Nc2cc3nonc3nc2O)cc1,–,–,Activity (L6 [6]): inactive; pEC50 (L6 [3]): inactive
Oc1nc2nonc2cc1Nc1ccc(F)cc1C(F)(F)F,29,5.3,–
Oc1nc2nonc2cc1Nc1ccc(F)c(F)c1F,2,–,pEC50 (L6 [3]): inactive
Oc1nc2nonc2cc1Nc1cc(F)ccc1F,27,4.7,–
Oc1nc2nonc2cc1Nc1cccc(C(F)(F)F)c1,14,5.8,–
Oc1nc2nonc2cc1Nc1ccc(F)c(F)c1,17,4.2,–
Cc1ccc(Nc2cc3nonc3nc2O)cc1,–,–,Activity (L6 [6]): inactive; pEC50 (L6 [3]): inactive
Oc1nc2nonc2cc1Nc1cc(C(F)(F)F)c(F)cc1F,51,5.5,EC50 [2]: 1.4 µM; Cmax [4]: 25 µM; t1/2 [5]: 1.3 h
COc1ccc(Nc2cc3nonc3nc2O)cc1,–,–,Activity (L6 [6]): inactive; pEC50 (L6 [3]): inactive
Oc1nc2nonc2cc1Nc1cc(F)c(C(F)(F)F)cc1F,26,6.1,–
Oc1nc2nonc2cc1Nc1ccc(C(F)(F)F)cc1,28,–,EC50 [2]: 6.9 µM

SMILES,Activity [1] [%],pEC50 [2],also measured
Oc1nc2nonc2cc1Nc1ccc(C(F)(F)F)c(F)c1,10,6.1,–
Oc1nc2nonc2cc1Nc1ccc(OC(F)(F)F)cc1C(F)(F)F,57,5.5,EC50 [2]: 3.1 µM; Cmax [4]: 10 µM; t1/2 [5]: > 24 h
Oc1nc2nonc2cc1Nc1ccccc1F,–,–,pEC50 (L6 [3]): inactive
Oc1nc2nonc2cc1Nc1ccc(C(F)(F)F)cc1F,9,–,pEC50 (L6 [3]): inactive
Oc1nc2nonc2cc1Nc1c(F)cccc1F,6,–,pEC50 (L6 [3]): inactive
O=C(Nc1ccc([N+](=O)[O-])cc1Cl)c1cc(Cl)ccc1O [NICLOSAMIDE],–,–,Activity (Mus musculus [8]): 25%
Oc1nc2nonc2cc1Nc1ccc(C(F)(F)F)nc1,26,4.7,EC50 [2]: 20 µM
Oc1nc2nonc2cc1Nc1cc(C(F)(F)F)ccc1F,54,5.4,EC50 [2]: 1.5 µM; Cmax [4]: 46 µM; t1/2 [5]: 1 h
Oc1nc2nonc2cc1Nc1cc(OC(F)(F)F)c(F)cc1F,58,5.7,–
Oc1nc2nonc2cc1Nc1ccc(C(F)(F)F)cc1C(F)(F)F,34,6,–
Oc1nc2nonc2cc1Nc1cccc(S(F)(F)(F)(F)F)c1,20,5.9,–
Oc1nc2nonc2cc1Nc1c(F)cc(F)cc1F,14,4.4,–
Oc1nc2nonc2cc1Nc1cc(C(F)(F)F)cc(C(F)(F)F)c1,35,5.8,–
CC(C)(C)c1ccccc1Nc1cc2nonc2nc1O,–,–,Activity (L6 [6]): inactive; pEC50 (L6 [3]): inactive
Oc1nc2nonc2cc1Nc1cc(F)c(C(F)(F)F)c(F)c1,33,5.9,–
Oc1nc2nonc2cc1Nc1ccc(OC(F)(F)F)cc1,14,5.8,–
Oc1nc2nonc2cc1Nc1cc(F)c(F)c(F)c1,21,5.6,–
Oc1nc2nonc2cc1Nc1ccc(OC(F)(F)F)c(F)c1,25,5.6,–
Oc1nc2nonc2cc1Nc1ccc(F)cc1OC(F)(F)F,14,5.7,–
